According to ChEMBL document CHEMBL1201862, “PubChem BioAssay data set” (2004):
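Test compounds were applied to cells in 96-well plates for 48 hours at 5 doses. Here, GI50 denotes the concentration required for 50% inhibition of growth.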 The source made the active and inactive calls. No stated cut-off is given here; in the data, active = GI50 up to about 1.1 µM and inactive = higher.

How the values were obtained:
Assay in all cases: NCI-60 cell line screen, 48 h
[1] = test system: A549
[2] = test system: CAKI-1
[3] = test system: COLO 205
[4] = test system: HCC 2998
[5] = test system: HOP-92
[6] = test system: K562
[7] = test system: LXFL 529
[8] = test system: NCI-H23
[9] = test system: OVCAR-5
[10] = test system: OVCAR-8
[11] = test system: RPMI-8226
[12] = test system: SF-295
[13] = test system: SNB-75
[14] = test system: SR
[15] = test system: SW-620
[16] = test system: TK-10
[17] = test system: UO-31
[18] = test system: DU-145
[19] = test system: MCF7
[20] = test system: MDA-MB-435

Measured: GI50

CC1CCC2(OC1)OC1CC3C4CCC5CC(O)CCC5(C)C4CC(=O)OC3(C)C1C2C (stereo not drawn)
inactive: [1] > 100 µM | [2] > 100 µM | [3] > 100 µM | [4] > 100 µM | [5] > 100 µM | [6] > 100 µM | [7] > 100 µM | [8] > 100 µM | [9] > 100 µM | [10] > 100 µM | [11] > 100 µM | [12] > 100 µM | [13] > 100 µM | [14] > 100 µM | [15] > 100 µM | [16] > 100 µM | [17] > 100 µM

CCOC1c2cc(OC)c(OC)cc2-c2ccc3ccccc3c2N1C (stereo not drawn)
inactive: [1] 5.62 µM | [2] 34.1 µM | [3] 6.05 µM | [18] 15 µM | [4] 14.1 µM | [5] 21.9 µM | [6] 7.16 µM | [7] 5.96 µM | [19] 12.4 µM | [20] 13.8 µM | [8] 8 µM | [9] 21.8 µM | [10] 12.2 µM | [11] 10.7 µM | [12] 24.4 µM | [13] 11.8 µM | [14] 7.78 µM | [15] 8.65 µM | [16] 31.6 µM | [17] 44.6 µM

Cc1ccc(C)c(NC(=O)/C(=N\NC(N)=S)C(C#N)c2ccccc2)c1 (stereo not drawn)
inactive: [1] > 100 µM | [2] > 100 µM | [3] > 100 µM | [4] > 100 µM | [5] > 100 µM | [6] > 100 µM | [7] > 100 µM | [8] > 100 µM | [9] > 100 µM | [10] > 100 µM | [11] > 100 µM | [12] > 100 µM | [13] > 100 µM | [14] > 100 µM | [15] > 100 µM | [16] > 100 µM | [17] > 100 µM

COc1cccc(NC(=O)C(C)(C)C)c1C=O
inactive: [1] 71.1 µM | [2] 56.6 µM | [3] > 100 µM | [4] 92 µM | [5] 54 µM | [6] 26.9 µM | [7] 33.7 µM | [8] 48.3 µM | [9] 62.5 µM | [10] 57.9 µM | [11] 19.4 µM | [12] 67.6 µM | [13] 39.3 µM | [14] 26.5 µM | [15] 34.7 µM | [16] 35 µM | [17] 34.3 µM

C#CCNC(=O)NCCCCC(NC(=O)OCc1ccccc1)C(=O)OCc1ccccc1 (stereo not drawn)
inactive: [1] 72.4 µM | [2] > 59.4 µM | [3] 17.7 µM | [4] 37.9 µM | [5] > 72.4 µM | [6] > 66.2 µM | [7] 40.3 µM | [8] > 64.3 µM | [9] > 100 µM | [10] 48.4 µM | [11] 21.2 µM | [12] > 100 µM | [13] > 72.4 µM | [14] 45 µM | [15] 72.8 µM | [16] > 100 µM | [17] > 48.4 µM
